Laboratory results published in US10221163B2 (priority 2015, dated 2019).
Read-outs that look alike come from different tables or passages of the source.

Legend:
[1] = system: Pseudomonas aeruginosa efflux+ (MB9798), IMP-1; format: cell-based; conditions: concentration restoring susceptibility to imipenem at 2 μg/mL in the presence of a class A, C, D serine β-lactamase inhibitor closely related to relebactam
Summary of the method: (§1)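 P. aeruginosa PAO1-derived IMP-1 strains, efflux+ MB9798 and efflux− MB9799, tested by standard microbroth MIC with imipenem and/or ceftazidime fixed, usually at CLSI breakpoint, plus fixed class A/C β-lactamase inhibitor against AmpC. Inhibitor titrated; concentration restoring susceptibility recorded; MB9798/MB9799 fold difference indicates efflux.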

[2] = system: Escherichia coli expressing NDM-1 (CLB30005, CLB30016); format: cell-based; conditions: with imipenem 1 μg/ml; 95% inhibition of bacterial growth
Summary of the method: (§2)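 Imipenem 1 μg/ml + inhibitor; MBL-expressing clinical strains in 1.1×CAMHB, inoculum from saline suspension diluted 1:100; 35° C, 22–24 h; absorbance read-out.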

[3] = system: Klebsiella pneumoniae expressing VIM-1 (IHMA599644); format: cell-based; conditions: with imipenem 1 μg/ml; 95% inhibition of bacterial growth
Summary of the method: as §2

[4] = system: Serratia marcescens expressing IMP-1 (CL5741); format: cell-based; conditions: with imipenem 1 μg/ml; 95% inhibition of bacterial growth
Summary of the method: as §2

[5] = system: Pseudomonas aeruginosa MB9798 vs MB9799; conditions: ratio MITC95 PA_9798/MITC95 PA_9799
Summary of the method: as §1

NDM-1 = NDM-1 (Klebsiella pneumoniae, UniProt C7C422); experiment: biochemical; format: biochemical; conditions: fluorescence assay, CCF2-FA substrate, 1 pM enzyme, 2 hours at 25° C., read-out: NDM-1 IC50
Summary of the method: (§3)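 Semi-log dose-response curves, fitted with a 4-parameter model, gave IC50s. The underlying signal was CCF2-FA fluorescence following 2 hours at 25° C with enzyme, substrate and inhibitor combined.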

IMP-1 = IMP-1 (Serratia marcescens, UniProt P52699); experiment: biochemical; format: biochemical; conditions: fluorescence assay, CCF2-FA substrate, 2 pM enzyme, 2 hours at 25° C., read-out: IMP-1 IC50
Summary of the method: as §3

[6] = system: Pseudomonas aeruginosa efflux− (MB9799), IMP-1; format: cell-based; conditions: concentration restoring susceptibility to imipenem at 2 μg/mL in the presence of a class A, C, D serine β-lactamase inhibitor closely related to relebactam
Summary of the method: as §1

VIM-1 = VIM-1 (Pseudomonas aeruginosa (strain ATCC 15692 / DSM 22644 / CIP 104116 / JCM 14847 / LMG 12228 / 1C / PRS 101 / PAO1), UniProt A0A0F7KYQ8); experiment: biochemical; conditions: CCF2-FA substrate, 30 pM enzyme, 2 hours at 25° C.
Summary of the method: as §3

[7] = fluorescence assay, read-out: VIM-1 IC50

Sequence of IMP-1 (P52699 whole entry, looked up, species assumed): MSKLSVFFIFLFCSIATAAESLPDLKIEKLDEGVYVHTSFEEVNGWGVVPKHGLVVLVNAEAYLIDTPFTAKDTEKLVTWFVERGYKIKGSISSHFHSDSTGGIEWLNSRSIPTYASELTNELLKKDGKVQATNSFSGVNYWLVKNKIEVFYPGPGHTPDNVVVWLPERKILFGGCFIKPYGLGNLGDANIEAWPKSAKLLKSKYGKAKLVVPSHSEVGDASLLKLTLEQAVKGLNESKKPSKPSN
Sequence of NDM-1 (C7C422 whole entry, looked up, species assumed): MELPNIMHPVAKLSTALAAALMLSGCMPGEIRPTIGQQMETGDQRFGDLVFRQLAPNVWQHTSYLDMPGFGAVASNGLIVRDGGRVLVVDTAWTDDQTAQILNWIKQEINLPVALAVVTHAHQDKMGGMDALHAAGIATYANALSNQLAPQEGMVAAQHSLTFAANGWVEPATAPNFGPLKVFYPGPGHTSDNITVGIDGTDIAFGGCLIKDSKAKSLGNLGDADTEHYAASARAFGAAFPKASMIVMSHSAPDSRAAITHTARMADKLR

| SMILES | P. aeruginosa expressing IMP-1, efflux + (MB9798) MITC95 [1] [µM] | Escherichia coli expressing NDM-1 (CLB30016) MITC95 [2] [µM] | Klebsiella pneumoniae expressing VIM-1 (IHMA599644) MITC95 [3] [µM] | Serratia marcescens expressing IMP-1 (CL5741) MITC95 [4] [µM] | Efflux ratio [5] | IC50 (NDM-1) [nM] | IC50 (IMP-1) [nM] | P. aeruginosa expressing IMP-1, efflux − (MB9799) MITC95 [6] [µM] | IC50 (VIM-1; [7]) [nM] | IC50 (VIM-1; VIM-1 IC50, fluorescence assay) [nM] | IC50 (NDM-1; 2,2,2-trifluoroacetate) [nM] | IC50 (IMP-1; 2,2,2-trifluoroacetate) [nM] |
| --- | --- | --- | --- | --- | --- | --- | --- | --- | --- | --- | --- | --- |
| Nc1nc2c(-c3ccc(S(=O)(=O)NCC4(O)CCNCC4)c(S(N)(=O)=O)c3-c3nnn[nH]3)cccc2s1 [Example 86, 4-(2-aminobenzo[d]thiazol-4-yl)-N^1-((4-hydroxypiperidin-4-yl)methyl)-3-(1H-tetrazol-5-yl)benzene-1,2-disulfonamide] | 0.7813 | 1.563 | 6.25 | 1.563 | 0.50 | 0.0275 | 0.129 | 1.563 | 0.0756 |  |  |  |
| CC(C)(N)CNS(=O)(=O)c1ccc(-c2cccc3sc(N)nc23)c(-c2nnn[nH]2)c1S(N)(=O)=O [Example 87, N^1-(2-amino-2-methylpropyl)-4-(2-aminobenzo[d]thiazol-4-yl)-3-(1H-tetrazol-5-yl)benzene-1,2-disulfonamide] | 0.7813 | 3.125 | 6.25 | 3.125 | 0.50 | 0.0367 | 0.261 | 1.563 | 0.197 |  |  |  |
| Nc1nc2c(-c3ccc(S(=O)(=O)NC4CC5CNC4C5)c(S(N)(=O)=O)c3-c3nnn[nH]3)cccc2s1 (stereo not drawn) [Example 88, 4-(2-aminobenzo[d]thiazol-4-yl)-N^1-(2-azabicyclo[2.2.1]heptan-6-yl)-3-(1H-tetrazol-5-yl)benzene-1,2-disulfonamide] | 1.563 | 3.125 | 6.25 | 3.125 | 0.50 | 0.0203 | 0.172 | 3.125 | 0.165 |  |  |  |
| Nc1nc2c(-c3ccc(S(=O)(=O)NC4CC5CNC4C5)c(S(N)(=O)=O)c3-c3nnn[nH]3)cccc2s1 (stereo not drawn) [Example 89, 4-(2-aminobenzo[d]thiazol-4-yl)-N^1-(2-azabicyclo[2.2.1]heptan-6-yl)-3-(1H-tetrazol-5-yl)benzene-1,2-disulfonamide] | 1.563 | 6.25 | 6.25 | 3.125 | 1.00 | 0.0581 | 0.568 | 1.563 | 0.23 |  |  |  |
| NCCCNS(=O)(=O)c1ccc(-c2cccc3sc(N)nc23)c(-c2nnn[nH]2)c1S(N)(=O)=O.O=C(O)C(F)(F)F [Example 90, 3-(4-(2-aminobenzo[d]thiazol-4-yl)-2-sulfamoyl-3-(1H-tetrazol-5-yl)phenylsulfonamido)propan-1-aminium 2,2,2-trifluoroacetate] | 0.7813 | 3.125 | 3.125 | 1.563 | 0.50 | 0.0795 | 0.411 | 1.563 | 0.27 |  |  |  |
| Nc1nc2c(-c3ccc(S(=O)(=O)NCC4(F)CNC4)c(S(N)(=O)=O)c3-c3nnn[nH]3)cccc2s1.O=CO [Example 91, 3-(((4-(2-aminobenzo[d]thiazol-4-yl)-2-sulfamoyl-3-(1H-tetrazol-5-yl)phenyl)sulfonamido)methyl)-3-fluoroazetidin-1-ium formate] | 1.563 | 1.563 | 3.125 | 1.563 | 1.00 | 0.0769 | 0.326 | 1.563 |  | 0.327 |  |  |
| CNCCCN(C)S(=O)(=O)c1ccc(-c2cccc3sc(N)nc23)c(-c2nnn[nH]2)c1S(N)(=O)=O.O=C(O)C(F)(F)F [Example 93, 3-(4-(2-aminobenzo[d]thiazol-4-yl)-N-methyl-2-sulfamoyl-3-(1H-tetrazol-5-yl)phenylsulfonamido)-N-methylpropan-1-aminium 2,2,2-trifluoroacetate] | 3.125 | 6.25 | 12.5 | 3.125 | 1.00 | 6.35 | 5.29 | 3.125 | 12.4 |  |  |  |
| NC[C@@H]1CCN(S(=O)(=O)c2ccc(-c3cccc4sc(N)nc34)c(-c3nnn[nH]3)c2S(N)(=O)=O)C1.O=C(O)C(F)(F)F [Example 94, (S)-(1-((4-(2-aminobenzo[d]thiazol-4-yl)-2-sulfamoyl-3-(1H-tetrazol-5-yl)phenyl)sulfonyl)pyrrolidin-3-yl)methanaminium 2,2,2-trifluoroacetate] | 1.563 | 3.646 | 3.125 | 2.083 | 1.00 |  |  | 1.563 |  | 0.973 | 0.574 | 0.73 |
| Nc1nc2c(-c3ccc(S(=O)(=O)NC4CCC5OC4CC5N)c(S(N)(=O)=O)c3-c3nnn[nH]3)cccc2s1.O=C(O)C(F)(F)F (stereo not drawn) [Example 95, 2-(4-(2-aminobenzo[d]thiazol-4-yl)-2-sulfamoyl-3-(1H-tetrazol-5-yl)phenylsulfonamido)-8-oxabicyclo[3.2.1]octan-6-aminium 2,2,2-trifluoroacetate] | 1.563 | 1.563 | 3.125 | 3.125 | 1.00 | 0.027 | 0.193 | 1.563 | 0.173 |  |  |  |
| Nc1nc2c(-c3ccc(S(=O)(=O)NCC4COCCN4)c(S(N)(=O)=O)c3-c3nnn[nH]3)cccc2s1.O=C(O)C(F)(F)F (stereo not drawn) [Example 96, 3-((4-(2-aminobenzo[d]thiazol-4-yl)-2-sulfamoyl-3-(1H-tetrazol-5-yl)phenylsulfonamido)methyl)morpholin-4-ium 2,2,2-trifluoroacetate] | 3.125 | 6.25 | 6.25 | 3.125 | 1.00 | 0.0757 | 0.402 | 3.125 |  | 0.299 |  |  |
